# Measurements from the supplement of paper PMC10307832.
# Tests used:
# Assay in all cases: relative viability (nuclei count vs DMSO), 5 days (fraction); higher = more cells survive
# ALW-II-49-7 + Luminespib = compound: Cc1ccc(C(=O)Nc2cccc(C(F)(F)F)c2)cc1Nc1cncc(C(N)=O)c1 [ALW-II-49-7] + CCNC(=O)c1noc(-c2cc(C(C)C)c(O)cc2O)c1-c1ccc(CN2CCOCC2)cc1 [Luminespib] (partner 0.01 µM)
# How it was run: (§1)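 Relative viability was taken as the ratio of nuclei in treated wells to nuclei in vehicle wells. Lung cancer cell lines in 1536-well plates received compounds by pin tool one day after seeding, either one drug alone or a fixed anchor-drug dose plus five library-drug doses (not always all listed) in √10 steps. Nuclei were counted on 4× images after 5 days of treatment, and values are medians of duplicate plates.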
# XMD13-2 + Dasatinib = compound: C1CC1C(=O)NC2=NNC3=C2C=CC(=C3)C4=CC(=CC=C4)C(=O)NC5CC5 [XMD13-2] + Cc1nc(Nc2ncc(C(=O)Nc3c(C)cccc3Cl)s2)cc(N2CCN(CCO)CC2)n1 [Dasatinib] (partner 0.075 µM)
# How it was run: as §1
# XMD13-2 + Vorinostat = compound: C1CC1C(=O)NC2=NNC3=C2C=CC(=C3)C4=CC(=CC=C4)C(=O)NC5CC5 [XMD13-2] + O=C(CCCCCCC(=O)Nc1ccccc1)NO [Vorinostat] (partner 1 µM)
# How it was run: as §1
# ALW-II-49-7 + Pemetrexed = compound: Cc1ccc(C(=O)Nc2cccc(C(F)(F)F)c2)cc1Nc1cncc(C(N)=O)c1 [ALW-II-49-7] + Nc1nc2[nH]cc(CCc3ccc(C(=O)N[C@@H](CCC(=O)O)C(=O)O)cc3)c2c(=O)[nH]1 [Pemetrexed] (partner 0.2 µM)
# How it was run: as §1
Cell Line,relative viability (ALW-II-49-7 + Luminespib; first compound 0.08 µM),relative viability (ALW-II-49-7 + Luminespib; first compound 0.253 µM),relative viability (ALW-II-49-7 + Luminespib; first compound 0.8 µM),relative viability (ALW-II-49-7 + Luminespib; first compound 2.53 µM),relative viability (ALW-II-49-7 + Luminespib; first compound 8 µM),relative viability (XMD13-2 + Dasatinib; first compound 0.05 µM),relative viability (XMD13-2 + Dasatinib; first compound 0.1581 µM),relative viability (XMD13-2 + Dasatinib; first compound 0.5 µM),relative viability (XMD13-2 + Dasatinib; first compound 1.581 µM),relative viability (XMD13-2 + Dasatinib; first compound 5 µM),relative viability (XMD13-2 + Vorinostat; first compound 0.05 µM),relative viability (XMD13-2 + Vorinostat; first compound 0.1581 µM),relative viability (XMD13-2 + Vorinostat; first compound 0.5 µM),relative viability (XMD13-2 + Vorinostat; first compound 1.581 µM),relative viability (XMD13-2 + Vorinostat; first compound 5 µM),relative viability (ALW-II-49-7 + Pemetrexed; first compound 0.08 µM),relative viability (ALW-II-49-7 + Pemetrexed; first compound 0.253 µM),relative viability (ALW-II-49-7 + Pemetrexed; first compound 0.8 µM),relative viability (ALW-II-49-7 + Pemetrexed; first compound 2.53 µM),relative viability (ALW-II-49-7 + Pemetrexed; first compound 8 µM)
201T,1.06,0.907,1.07,0.993,1.09,0.686,0.533,0.578,0.555,0.563,0.997,1.04,1.05,0.981,1.04,0.321,0.365,0.287,0.346,0.381
A-427,0.728,0.736,0.875,,0.769,0.767,0.792,0.705,0.683,0.536,0.927,0.852,0.862,,0.705,0.982,1.11,0.926,1.02,1.06
ABC-1,0.472,0.535,0.718,0.355,0.496,0.53,0.542,0.599,0.51,0.426,1.3,0.979,1.03,,0.774,,,,,
BEN,0.682,0.458,0.509,0.521,0.24,0.321,0.327,0.343,0.246,0.331,0.625,0.543,0.585,0.574,0.487,0.8,0.88,0.757,0.902,0.81
CAL-12T,0.193,0.293,0.517,0.285,0.38,0.497,0.402,0.405,0.396,0.409,0.76,0.652,0.792,0.71,1.06,1.16,1.3,1.27,1.25,0.749
COR-L23,0.651,0.465,0.521,0.774,0.808,0.585,0.544,0.477,0.42,0.497,0.58,0.566,0.737,0.368,0.544,0.198,0.208,0.206,0.204,0.177
COR-L 105,0.745,0.646,0.845,0.72,0.879,0.463,0.325,0.343,0.365,0.323,0.781,0.929,1.01,0.79,0.847,1.16,1.06,1.21,0.959,0.974
ChaGo-K-1,0.529,0.664,0.544,0.444,0.438,0.651,0.533,0.604,0.602,0.517,0.789,0.635,0.837,0.7,0.716,0.266,0.274,0.263,0.268,0.262
EKVX,0.679,0.812,0.825,0.903,0.803,0.591,0.445,0.548,0.594,0.497,0.785,0.625,0.758,0.661,0.702,0.396,0.323,0.405,0.336,0.414
EMC-BAC-2,1.07,1.14,1.22,1.06,0.998,0.32,0.323,0.202,0.302,0.25,0.502,0.43,0.438,,0.36,0.448,0.455,0.409,0.456,0.403
EPLC-272H,0.218,,0.324,0.312,0.276,0.39,0.31,0.503,0.317,0.269,0.474,0.473,0.374,0.33,0.0998,0.315,0.382,0.289,0.34,0.206
H3255,1.02,0.851,0.972,0.876,0.648,0.425,0.402,0.367,0.294,0.373,0.839,0.716,0.746,,0.662,0.623,0.579,0.576,0.566,0.489
HARA,0.465,0.655,0.545,0.833,1.17,0.353,0.196,0.279,0.295,0.298,0.555,0.484,0.536,0.578,0.372,0.235,0.288,0.247,0.277,0.218
HCC-15,0.172,0.302,0.319,0.304,0.391,0.775,0.66,0.715,0.614,0.423,0.971,0.862,0.957,0.764,0.823,0.214,0.227,0.228,0.227,0.241
HCC-44,,0.987,1.12,0.333,1.04,,,,,,1.11,1.17,1.21,1.09,1.09,0.683,0.662,0.617,0.664,0.673
HCC-78,,,,,,0.565,0.321,0.36,0.347,0.351,0.481,0.489,0.454,0.445,0.413,0.888,0.846,0.91,0.884,0.891

Cell Line,relative viability (ALW-II-49-7 + Luminespib; first compound 0.08 µM),relative viability (ALW-II-49-7 + Luminespib; first compound 0.253 µM),relative viability (ALW-II-49-7 + Luminespib; first compound 0.8 µM),relative viability (ALW-II-49-7 + Luminespib; first compound 2.53 µM),relative viability (ALW-II-49-7 + Luminespib; first compound 8 µM),relative viability (XMD13-2 + Dasatinib; first compound 0.05 µM),relative viability (XMD13-2 + Dasatinib; first compound 0.1581 µM),relative viability (XMD13-2 + Dasatinib; first compound 0.5 µM),relative viability (XMD13-2 + Dasatinib; first compound 1.581 µM),relative viability (XMD13-2 + Dasatinib; first compound 5 µM),relative viability (XMD13-2 + Vorinostat; first compound 0.05 µM),relative viability (XMD13-2 + Vorinostat; first compound 0.1581 µM),relative viability (XMD13-2 + Vorinostat; first compound 0.5 µM),relative viability (XMD13-2 + Vorinostat; first compound 1.581 µM),relative viability (XMD13-2 + Vorinostat; first compound 5 µM),relative viability (ALW-II-49-7 + Pemetrexed; first compound 0.08 µM),relative viability (ALW-II-49-7 + Pemetrexed; first compound 0.253 µM),relative viability (ALW-II-49-7 + Pemetrexed; first compound 0.8 µM),relative viability (ALW-II-49-7 + Pemetrexed; first compound 2.53 µM),relative viability (ALW-II-49-7 + Pemetrexed; first compound 8 µM)
HCC-366,,,,,,0.775,0.48,0.783,0.585,0.662,0.439,0.291,0.386,0.379,0.399,0.195,0.188,0.155,0.195,0.131
HCC-827,0.795,0.587,0.678,0.683,1.76,0.321,0.21,0.317,0.253,0.337,0.838,0.937,0.956,0.765,1.06,0.275,0.259,0.173,0.176,0.25
HOP-62,0.959,0.883,0.75,0.702,0.735,0.699,0.689,0.794,0.605,0.6,0.612,0.587,0.658,0.694,0.537,0.313,0.35,0.322,0.307,0.243
IA-LM,,,,,,,,,,,0.954,1.05,0.96,,0.718,,,,,
LC-2-ad,0.962,1.04,1.02,0.494,1,0.899,0.39,0.711,0.535,0.559,0.721,0.703,0.717,0.696,0.722,0.249,0.258,0.273,0.229,0.267
LCLC-97TM1,0.772,0.689,0.807,0.869,0.656,0.829,0.784,0.839,0.728,0.695,0.769,0.551,0.747,0.532,0.301,0.147,0.161,0.176,0.16,0.148
LCLC-103H,0.852,1.01,1.03,0.854,1.03,0.688,0.46,0.445,0.515,0.527,0.891,0.83,0.817,0.696,0.751,0.533,0.502,0.477,0.462,0.419
LK-2,,0.184,0.174,0.205,0.185,0.343,0.276,0.361,0.304,0.234,0.439,0.201,0.212,0.198,0.137,0.244,0.282,0.316,,0.201
LOU-NH91,0.384,0.363,0.321,0.276,0.283,0.591,0.586,0.566,0.479,0.525,1.05,0.971,0.935,0.852,1.02,0.298,0.361,0.35,,0.338
LU99A,0.253,0.212,0.194,0.217,0.288,0.572,0.646,0.649,0.503,0.456,0.536,0.43,0.522,0.561,0.468,,0.19,0.163,0.172,0.184
NCI-H727,0.419,0.336,0.392,0.367,0.239,0.383,0.344,0.38,0.478,0.426,1.23,1.09,1.41,1.33,1.22,,,,,
NCI-H1563,0.531,0.487,0.503,0.495,0.457,0.485,0.435,0.43,0.436,0.506,,,,,,0.73,0.732,0.718,0.811,0.713
NCI-H1623,0.518,0.428,0.431,0.561,0.698,0.533,0.52,0.467,0.526,0.585,,,,,,,,,,
NCI-H1648,,,,,,,,,,,0.733,,0.42,0.391,0.459,0.579,0.934,0.802,0.52,0.738
NCI-H1792,,0.383,0.276,0.293,0.349,0.966,1.03,0.798,0.971,0.829,,,,,,0.561,0.531,0.446,0.857,0.602
